According to article PMC6539525, “Design, Synthesis, and Mechanism of Dihydroartemisinin–Coumarin Hybrids as Potential Anti-Neuroinflammatory Agents” (Molecules, 2019):
pIC50: −log10 of the molar value. Where two headings read alike, the source gives them in different places.

Experiments:
A549 cells = assay: MTT cytotoxicity in A549 cells; assay type: cell-based; settings: Homo sapiens
Experimental: (§1) As the anti-neuroinflammatory agents for cancer patients, all newly synthesized compounds were evaluated in vitro for antitumor activity against human breast cancer cell line MDA-MB-231, colorectal cancer cells HT-29 and HCT-116, and lung cancer cell line A549 by using the standard MTT method, respectively. Doxorubicin (DOX) and DHA were used as the reference standard. Additionally, owing to the rapid proliferation, the tumor cells actually was always in hypoxia condition. Therefore, the in vitro cytotoxicity was evaluated in two different conditions (hypoxia and normoxia).
(§2) After recovery, the cells were cultured in 96-well plates for 24 h at 37 °C in a humidified atmosphere with 95% air and 5% CO2. After treated with different tested compounds, the hypoxia groups were placed in a sealed hypoxia incubator chamber (Stemcell Technologies, Inc., Vancouver, BC, Canada) filled with 5% CO2 and 95% N2 for 24 h, and then transferred to the incubator chamber filled with air for 72 h. On the contrary, the normoxia groups were cultured under air condition for 96h.
(§3) Cancer cells HT-29 (Human Colorectal Adenocarcinoma cell line), MDA-MB-231 (Human Breast Cancer cell line), HCT-116 (Human Colorectal Carcinoma cell line), and A549 (Human Lung Adenocarcinomic cell line) were from ATCC.
(§4) When the adherent cells reached 80% confluence, the culture medium was discarded. The cells were digested by trypsin and collected after centrifugation. The fresh culture medium was gently blown into it to form single-cell suspension. Cell suspension will be diluted to 1.5–3 × 10^4 cells/mL. Each hole of 96-well plates was added 100 μL cell suspension and incubated for 24 h (5% CO2; 37 °C). Then the holes were added different concentrations of tested compounds. The early screening concentration is set to 100 μM, 50 μM, 25 μM, 12.5 μM, and 6.25 μM. Three replicates were made for each concentration of the tested compounds. After the cells were grown for 96h, 20 μL MTT (5 mg/mL) was added to each well and incubated for 4 h. The medium was discarded and each well was added 100 μL DMSO to dissolve the formazan blue. Absorbance was measured at 570 nm with a microplate reader (Synergy-HT, BioTek Instruments, Winooski, VT, USA).
(§5) Hypoxia condition: The cells were treated with different concentration of tested compounds, placed in hypoxia chamber (Catalog Number 27310, Stemcell Technologies, Inc., Vancouver, BC, Canada), and incubated for 24 h ([…]; 37 °C). Then the cells were placed in normoxia condition (5% CO2; 37 °C) and incubated for 72 h.

[1] = system: NO release of LPS-induced microglial N9 cells; assay: Inhibition of NO release in LPS-induced N9 cells (Griess); assay type: cell-based, murine; settings: Mus musculus, 1 μg/mL LPS for 48 h, NO level in medium
Experimental: (§6) The anti-neuroinflammatory activity of DCH was evaluated and then the representative compounds were selected for the further study. […] In addition, in order to exclude the death influence, MTT-IC20 of all the compounds were measured. […] The exact reason was still unclear, but we supposed that it might be related to the homeostasis of cells. The tumor cells actually were always in hypoxia condition, in which DCH could promote the cytotoxic activity against tumor cells. In brief, DCH could reduce the release of NO caused by LPS-induced microglial cells.
(§7) N9 cells, which were in the logarithmic phase, were incubated for 24 h by adherent culture. Subsequently, the medium was changed to new one without serum. The cells were treated with different concentration of tested compounds. After specific time in the LPS condition, the supernatants were collected and analyzed.
The nitrite levels in medium were determined by Griess reaction. The absorbance was measured at 540 nm using a microplate reader.

MDA-MB-231 cells = assay: MTT cytotoxicity in MDA-MB-231 cells; assay type: cell-based; settings: Homo sapiens
Experimental: as §1, §2, §3, §4, §5

HT-29 cells = assay: MTT cytotoxicity in HT-29 cells; assay type: cell-based, Human; settings: Homo sapiens, MTT
Experimental: as §1
as §2, with “On the contrary, the normoxia groups were cultured under air condition for 96h.” left out
as §3
as §4, with “After the cells were grown for 96h, 20 μL MTT (5 mg/mL) was added to each well and incubated for 4 h.” left out, “USA). […]” for “USA).”

HCT-116 cells = assay: MTT cytotoxicity in HCT-116 cells; assay type: cell-based; settings: Homo sapiens
Experimental: as §1, §2, §3, §4, §5

[2] = MTT cytotoxicity in N9 cells; assay type: cell-based, murine; settings: mouse, N9 microglial cells, cytotoxic activity
Experimental: as §6, §4, §7

[3] = A549, hypoxia 24 h then normoxia 72 h, read-out: IC50 A549 Hypoxia
[4] = A549, normoxia 96 h, read-out: IC50 A549 Normoxia
[5] = MDA-MB-231, hypoxia 24 h then normoxia 72 h, read-out: IC50 MDA-MB-231 Hypoxia
[6] = MDA-MB-231, normoxia 96 h, read-out: IC50 MDA-MB-231 Normoxia
[7] = HT-29, hypoxia 24 h then normoxia 72 h, read-out: IC50 HT-29 Hypoxia
[8] = HT-29, normoxia 96 h, read-out: IC50 HT-29 Normoxia
[9] = HCT-116, hypoxia 24 h then normoxia 72 h, read-out: IC50 HCT-116 Hypoxia
[10] = HCT-116, normoxia 96 h, read-out: IC50 HCT-116 Normoxia

| Compound | pIC50 (A549 cells; [3]) | pIC50 (A549 cells; [4]) | pIC50 [1] | pIC50 (MDA-MB-231 cells; [5]) | pIC50 (MDA-MB-231 cells; [6]) | pIC50 (HT-29 cells; [7]) | pIC50 (HT-29 cells; [8]) | pIC50 (HCT-116 cells; [9]) | pIC50 (HCT-116 cells; [10]) | IC20 [2] |
| --- | --- | --- | --- | --- | --- | --- | --- | --- | --- | --- |
| C[C@H]1[C@@H](OCc2cn(Cc3cc(=O)oc4cc(O)ccc34)nn2)O[C@@H]2O[C@@]3(C)CC[C@H]4[C@H](C)CC[C@@H]1[C@@]24OO3 [3f, 7-hydroxy-4-((4-((10S)-dihydroartemisininoxy)methyl-1H-1,2,3-triazol-1-yl)-methyl)-2H-1-chromen-2-one] | 4.01 | < 4.00 | 6.43 | 4.20 | < 4.00 | 4.81 | 4.42 | 4.17 | < 4.00 | > 10 µM |
| Cc1cc(C)c2c(Cn3cc(CO[C@H]4O[C@@H]5O[C@@]6(C)CC[C@H]7[C@H](C)CC[C@@H]([C@H]4C)[C@@]57OO6)nn3)cc(=O)oc2c1 [3g, 5,7-dimethyl-4-((4-((10S)-dihydroartemisininoxy)methyl-1H-1,2,3-triazol-1-yl)-methyl)-2H-1-chromen-2-one] | < 4.00 | < 4.00 | < 5.00 | < 4.00 | < 4.00 | 4.80 | 4.62 | < 4.00 | < 4.00 | > 10 µM |
| Cc1ccc2c(Cn3cc(CO[C@H]4O[C@@H]5O[C@@]6(C)CC[C@H]7[C@H](C)CC[C@@H]([C@H]4C)[C@@]57OO6)nn3)cc(=O)oc2c1 [3h, 7-methyl-4-((4-((10S)-dihydroartemisininoxy)methyl-1H-1,2,3-triazol-1-yl)-methyl)-2H-1-chromen-2-one] | < 4.00 | < 4.00 | < 5.00 | < 4.00 | < 4.00 | 4.49 | < 4.00 | < 4.00 | < 4.00 | > 10 µM |
| Cc1ccc2oc(=O)cc(Cn3cc(CO[C@H]4O[C@@H]5O[C@@]6(C)CC[C@H]7[C@H](C)CC[C@@H]([C@H]4C)[C@@]57OO6)nn3)c2c1 [3i, 6-methyl-4-((4-((10S)-dihydroartemisininoxy)methyl-1H-1,2,3-triazol-1-yl)-methyl)-2H-1-chromen-2-one] | 4.21 | < 4.00 | 6.14 | 4.64 | < 4.00 | 5.07 | 4.79 | < 4.00 | 4.19 | > 10 µM |
| C[C@H]1[C@@H](OCCc2cn(Cc3cc(=O)oc4cc(O)ccc34)nn2)O[C@@H]2O[C@@]3(C)CC[C@H]4[C@H](C)CC[C@@H]1[C@@]24OO3 [4f, 7-hydroxy-4-((4-(2-((10S)-dihydroartemisininoxy)ethyl)-1H-1,2,3-triazol-1-yl)-methyl)-2H-1-chromen-2-one] | < 4.00 | < 4.00 | 5.69 | 4.10 | < 4.00 | 4.95 | 4.49 | < 4.00 | < 4.00 | > 10 µM |
| Cc1cc(C)c2c(Cn3cc(CCO[C@H]4O[C@@H]5O[C@@]6(C)CC[C@H]7[C@H](C)CC[C@@H]([C@H]4C)[C@@]57OO6)nn3)cc(=O)oc2c1 [4g, 5,7-dimethyl-4-((4-(2-((10S)-dihydroartemisininoxy)ethyl)-1H-1,2,3-triazol-1-yl)-methyl)-2H-1-chromen-2-one] | < 4.00 | < 4.00 | 5.87 | 4.64 | < 4.00 | 5.03 | 4.86 | 4.59 | 4.46 | > 10 µM |
| Cc1ccc2c(Cn3cc(CCO[C@H]4O[C@@H]5O[C@@]6(C)CC[C@H]7[C@H](C)CC[C@@H]([C@H]4C)[C@@]57OO6)nn3)cc(=O)oc2c1 [4h, 7-methyl-4-((4-(2-((10S)-dihydroartemisininoxy)ethyl)-1H-1,2,3-triazol-1-yl)-methyl)-2H-1-chromen-2-one] | < 4.00 | < 4.00 | 5.24 | < 4.00 | < 4.00 | 4.25 | < 4.00 | < 4.00 | < 4.00 | > 10 µM |
| Cc1ccc2oc(=O)cc(Cn3cc(CCO[C@H]4O[C@@H]5O[C@@]6(C)CC[C@H]7[C@H](C)CC[C@@H]([C@H]4C)[C@@]57OO6)nn3)c2c1 [4i, 6-methyl-4-((4-(2-((10S)-dihydroartemisininoxy)ethyl)-1H-1,2,3-triazol-1-yl)-methyl)-2H-1-chromen-2-one] | < 4.00 | < 4.00 | < 5.00 | < 4.00 | < 4.00 | 4.41 | < 4.00 | < 4.00 | < 4.00 | > 10 µM |
| C[C@H]1[C@@H](OCCn2cc(COc3cc(=O)oc4ccccc34)nn2)O[C@@H]2O[C@@]3(C)CC[C@H]4[C@H](C)CC[C@@H]1[C@@]24OO3 [5j] | < 4.00 | < 4.00 | 5.80 | 4.16 | 4.00 | 4.91 | 4.52 | < 4.00 | 4.11 | > 10 µM |
| C[C@H]1[C@@H](O)O[C@@H]2O[C@@]3(C)CC[C@H]4[C@H](C)CC[C@@H]1[C@@]24OO3 [DHA, Dihydroartemisinin] | < 4.00 | < 4.00 | 5.80 | 4.34 | < 4.00 | 4.93 | 4.29 | 4.59 | 4.99 | > 10 µM |
| COc1cccc2c1C(=O)c1c(O)c3c(c(O)c1C2=O)C[C@@](O)(C(=O)CO)C[C@@H]3O[C@H]1C[C@H](N)[C@H](O)[C@H](C)O1 [DOX, Doxorubicin, reference compound] | < 5.70 | < 5.70 |  | 6.16 | 5.86 | > 7.00 | 6.96 | < 5.70 | 5.89 |  |
| CN(C)c1ccc(O)c2c1C[C@H]1C[C@H]3[C@H](N(C)C)C(O)=C(C(N)=O)C(=O)[C@@]3(O)C(O)=C1C2=O [Minocycline, reference compound] |  |  | < 5.00 |  |  |  |  |  |  | > 10 µM |
